Test results taken from patent US12268666B2, “Spray-dried dispersions, formulations, and polymorphs of (S)-5-amino-3-(4-((5-fluoro-2-methoxybenzamido)methyl)phenyl)-1-(1,1,1-trifluoropropan-2-yl)-1H-pyrazole-4-carboxamide” (Loxo Oncology, Inc., priority 2018, dated 2025).

Key:
MEK1 = molecular target: T1, MEK1 (Homo sapiens, UniProt Q02750); assay: Kinase selectivity, radiolabeled ATP activity assay; type: biochemical
T1 construct: purchased Reaction Biology
Experimental: (§1) Each assay is performed at an ATP concentration close to the Km for each enzyme. […] BRK, CSK, ERBB4, FYN, MEK1, MEK2, TXK, and YES1 The inhibitory activity of the compound of Formula I on the enzymatic activity of these kinases and TEC is determined using a radiolabeled ATP activity assay conducted with an ATP concentration near the ATP Km for each enzyme. After co-incubation with a serial dilution of the compound of Formula I, the quantity of ^33P incorporated into a peptide substrate is measured and the data analyzed using standard curve fitting methods.

FYN = molecular target: T2, FYN (Homo sapiens, UniProt P06241); assay: as above; type: biochemical
T2 construct: purchased Reaction Biology
T2 sequence (P06241 whole entry): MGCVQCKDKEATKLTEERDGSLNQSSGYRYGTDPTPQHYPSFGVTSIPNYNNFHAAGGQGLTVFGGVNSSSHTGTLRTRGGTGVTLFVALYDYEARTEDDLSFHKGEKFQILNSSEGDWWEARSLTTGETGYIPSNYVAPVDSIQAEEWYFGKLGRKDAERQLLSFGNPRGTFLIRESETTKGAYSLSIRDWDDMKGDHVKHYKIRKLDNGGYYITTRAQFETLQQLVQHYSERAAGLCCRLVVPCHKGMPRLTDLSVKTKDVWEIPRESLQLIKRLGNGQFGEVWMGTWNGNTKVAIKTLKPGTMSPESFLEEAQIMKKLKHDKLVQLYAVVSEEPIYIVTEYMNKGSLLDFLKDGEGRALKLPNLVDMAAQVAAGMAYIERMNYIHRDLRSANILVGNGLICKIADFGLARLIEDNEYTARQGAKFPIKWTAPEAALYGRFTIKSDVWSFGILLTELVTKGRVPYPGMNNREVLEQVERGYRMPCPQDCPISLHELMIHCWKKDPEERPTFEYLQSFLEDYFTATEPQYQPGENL
Experimental: as §1

TEC = TEC (Homo sapiens, UniProt P42680); assay: as above; type: biochemical; conditions: ATP near Km
Sequence of TEC (P42680 whole entry): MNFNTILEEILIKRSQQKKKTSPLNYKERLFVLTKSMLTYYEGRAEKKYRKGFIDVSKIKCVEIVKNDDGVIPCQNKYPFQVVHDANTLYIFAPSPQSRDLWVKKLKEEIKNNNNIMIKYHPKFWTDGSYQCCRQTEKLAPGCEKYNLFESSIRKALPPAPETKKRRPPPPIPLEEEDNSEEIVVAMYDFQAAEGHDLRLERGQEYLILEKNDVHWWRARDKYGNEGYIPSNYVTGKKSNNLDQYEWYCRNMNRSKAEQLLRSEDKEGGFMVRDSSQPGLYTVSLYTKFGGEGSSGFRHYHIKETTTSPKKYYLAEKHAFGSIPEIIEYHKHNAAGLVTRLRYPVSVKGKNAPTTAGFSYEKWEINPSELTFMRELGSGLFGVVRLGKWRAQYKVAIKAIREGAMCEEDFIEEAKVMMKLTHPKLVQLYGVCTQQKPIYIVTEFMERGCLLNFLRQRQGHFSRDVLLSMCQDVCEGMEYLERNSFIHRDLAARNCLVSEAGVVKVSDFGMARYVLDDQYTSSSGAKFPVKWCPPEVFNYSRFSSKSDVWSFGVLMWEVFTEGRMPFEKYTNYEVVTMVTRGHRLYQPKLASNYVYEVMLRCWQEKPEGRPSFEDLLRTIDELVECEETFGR
Experimental: as §1

ERBB4 = molecular target: T3, ERBB4 (Homo sapiens, UniProt Q15303); assay: as above; type: biochemical
T3 construct: purchased Reaction Biology
T3 sequence (Q15303 26-1308): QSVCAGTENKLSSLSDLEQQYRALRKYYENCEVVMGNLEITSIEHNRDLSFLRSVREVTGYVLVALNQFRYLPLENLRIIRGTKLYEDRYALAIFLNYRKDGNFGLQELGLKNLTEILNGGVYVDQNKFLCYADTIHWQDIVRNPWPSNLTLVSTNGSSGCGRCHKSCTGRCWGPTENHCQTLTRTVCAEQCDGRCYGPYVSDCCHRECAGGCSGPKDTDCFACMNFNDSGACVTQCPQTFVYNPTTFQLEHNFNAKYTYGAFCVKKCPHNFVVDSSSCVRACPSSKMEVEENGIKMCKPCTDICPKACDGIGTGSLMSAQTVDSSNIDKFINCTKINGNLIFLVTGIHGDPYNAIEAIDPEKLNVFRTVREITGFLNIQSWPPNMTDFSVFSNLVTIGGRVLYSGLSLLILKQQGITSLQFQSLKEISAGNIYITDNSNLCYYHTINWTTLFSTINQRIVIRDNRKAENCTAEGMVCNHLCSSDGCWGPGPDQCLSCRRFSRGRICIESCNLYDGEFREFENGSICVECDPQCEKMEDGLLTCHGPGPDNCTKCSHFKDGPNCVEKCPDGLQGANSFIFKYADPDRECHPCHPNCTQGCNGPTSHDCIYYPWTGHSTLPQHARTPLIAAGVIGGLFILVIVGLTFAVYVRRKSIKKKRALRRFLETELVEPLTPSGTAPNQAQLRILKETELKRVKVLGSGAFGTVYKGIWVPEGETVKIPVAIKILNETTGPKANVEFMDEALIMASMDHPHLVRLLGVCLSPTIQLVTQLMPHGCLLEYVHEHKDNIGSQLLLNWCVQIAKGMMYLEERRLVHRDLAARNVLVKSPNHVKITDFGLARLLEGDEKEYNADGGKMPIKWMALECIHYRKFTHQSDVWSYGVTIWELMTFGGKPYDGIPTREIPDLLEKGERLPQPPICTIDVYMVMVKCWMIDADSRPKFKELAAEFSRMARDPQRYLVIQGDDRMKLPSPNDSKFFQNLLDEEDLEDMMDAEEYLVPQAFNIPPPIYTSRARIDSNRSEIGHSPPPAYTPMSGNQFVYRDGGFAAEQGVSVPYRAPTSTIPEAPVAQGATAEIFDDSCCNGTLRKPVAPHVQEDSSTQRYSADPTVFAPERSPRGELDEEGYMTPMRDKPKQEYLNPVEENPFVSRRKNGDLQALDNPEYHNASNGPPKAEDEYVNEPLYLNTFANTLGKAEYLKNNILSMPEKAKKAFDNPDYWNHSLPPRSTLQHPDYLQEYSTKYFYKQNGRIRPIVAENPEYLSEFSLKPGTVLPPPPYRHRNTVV
Experimental: as §1

BRK = molecular target: T4, BRK (Homo sapiens, UniProt Q13882); assay: as above; type: biochemical
T4 construct: purchased Reaction Biology
T4 sequence (Q13882 whole entry): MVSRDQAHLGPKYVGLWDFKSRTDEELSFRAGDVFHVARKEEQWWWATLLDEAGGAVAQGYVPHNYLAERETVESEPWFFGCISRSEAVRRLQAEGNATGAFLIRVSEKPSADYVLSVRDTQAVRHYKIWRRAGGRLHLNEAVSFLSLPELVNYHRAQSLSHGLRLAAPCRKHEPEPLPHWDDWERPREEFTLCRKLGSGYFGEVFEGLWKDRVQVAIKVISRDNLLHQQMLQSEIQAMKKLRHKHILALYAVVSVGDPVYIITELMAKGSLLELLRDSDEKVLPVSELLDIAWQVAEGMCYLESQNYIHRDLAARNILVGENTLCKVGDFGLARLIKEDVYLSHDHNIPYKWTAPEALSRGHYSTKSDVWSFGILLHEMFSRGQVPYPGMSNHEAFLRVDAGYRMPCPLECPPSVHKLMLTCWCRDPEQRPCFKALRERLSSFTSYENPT
Experimental: as §1

TXK = molecular target: T5, TXK (Homo sapiens, UniProt P42681); assay: as above; type: biochemical
T5 construct: purchased Reaction Biology
T5 sequence (P42681 whole entry): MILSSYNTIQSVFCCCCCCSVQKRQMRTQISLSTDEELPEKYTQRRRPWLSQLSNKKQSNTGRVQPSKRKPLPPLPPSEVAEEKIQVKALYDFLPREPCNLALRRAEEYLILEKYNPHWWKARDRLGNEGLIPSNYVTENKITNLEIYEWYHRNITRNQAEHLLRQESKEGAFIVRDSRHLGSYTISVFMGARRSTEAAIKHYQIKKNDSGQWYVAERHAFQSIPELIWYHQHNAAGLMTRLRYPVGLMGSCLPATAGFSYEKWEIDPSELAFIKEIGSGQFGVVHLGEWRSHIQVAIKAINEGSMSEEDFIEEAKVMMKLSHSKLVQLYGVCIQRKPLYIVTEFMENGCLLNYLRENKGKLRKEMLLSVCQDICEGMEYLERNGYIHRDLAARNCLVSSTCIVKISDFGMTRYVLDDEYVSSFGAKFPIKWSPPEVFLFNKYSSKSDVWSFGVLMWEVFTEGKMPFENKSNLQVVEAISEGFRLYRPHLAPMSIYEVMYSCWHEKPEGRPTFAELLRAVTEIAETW
Experimental: as §1

YES1 = molecular target: T6, YES1 (Homo sapiens, UniProt P07947); assay: as above; type: biochemical
T6 construct: purchased Reaction Biology
T6 sequence (P07947 whole entry): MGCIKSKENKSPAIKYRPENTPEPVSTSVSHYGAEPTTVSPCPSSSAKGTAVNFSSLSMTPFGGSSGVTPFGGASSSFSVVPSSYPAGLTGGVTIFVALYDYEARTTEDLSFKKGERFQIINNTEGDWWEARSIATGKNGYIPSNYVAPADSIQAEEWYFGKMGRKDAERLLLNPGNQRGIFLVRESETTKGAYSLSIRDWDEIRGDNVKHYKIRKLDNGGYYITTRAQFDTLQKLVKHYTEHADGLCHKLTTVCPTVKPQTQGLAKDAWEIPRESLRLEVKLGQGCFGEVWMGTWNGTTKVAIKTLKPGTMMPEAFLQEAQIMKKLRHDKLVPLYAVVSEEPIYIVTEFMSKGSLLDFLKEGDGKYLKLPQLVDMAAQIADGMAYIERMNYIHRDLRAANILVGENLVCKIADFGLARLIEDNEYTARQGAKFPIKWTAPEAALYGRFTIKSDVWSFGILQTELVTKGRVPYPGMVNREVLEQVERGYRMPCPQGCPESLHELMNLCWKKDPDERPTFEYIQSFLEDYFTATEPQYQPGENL
Experimental: as §1

MEK2 = molecular target: T7, MEK2 (Homo sapiens, UniProt P36507); assay: as above; type: biochemical
T7 construct: purchased Reaction Biology
T7 sequence (P36507 whole entry): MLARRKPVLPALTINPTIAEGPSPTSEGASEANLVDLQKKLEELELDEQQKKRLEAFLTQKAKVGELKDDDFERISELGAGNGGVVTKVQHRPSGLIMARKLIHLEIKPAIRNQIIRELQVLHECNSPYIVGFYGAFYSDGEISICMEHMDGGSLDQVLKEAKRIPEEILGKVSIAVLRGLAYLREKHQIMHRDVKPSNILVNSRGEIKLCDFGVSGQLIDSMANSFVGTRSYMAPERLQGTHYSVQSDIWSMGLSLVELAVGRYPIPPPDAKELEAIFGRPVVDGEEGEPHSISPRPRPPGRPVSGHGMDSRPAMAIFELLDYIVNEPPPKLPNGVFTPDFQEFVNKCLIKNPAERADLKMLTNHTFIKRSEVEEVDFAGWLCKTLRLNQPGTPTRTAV
Experimental: as §1

BTK = molecular target: T8, BTK (Homo sapiens, UniProt Q06187); assay: BTK Y223 autophosphorylation in Ramos RA1 cells; type: cell-based; conditions: anti-human IgM stimulation
T8 construct: host or cells: Ramos RA1
Experimental: Ramos RA1 cells, obtained from ATCC (CRL-1596), are grown in RPMI 1640+10% fetal bovine serum (FBS) at 37° C. in a CO2 incubator. […] Nine hundred μL of cell/well are added to 24 well plates and 100 uL of 10× stocks of inhibitor are added. The 10× compound of Formula I stocks are prepared in 1% DMSO, by doing a 1:3 dilution series with final concentrations in the wells ranging between 900 nM to 0.41 nM. […] All samples are tested in triplicate. After 2 hours (starvation and dosing) sodium orthovanadate is added to a final concentration of 200 μM and incubated for 30 more min. Cells are then stimulated with 4 uL of goat F(ab′)2 anti-human IgM (Jackson ImmunoResearch #109-006-129) for 5 min at room temperature, spun down, resuspended in 100 uL of […]™ M (Sigma #C2978) containing 5× Halt phosphatase and protease inhibitor cocktails (Pierce #78442), and stored at −80° C. Lysates are quantified by BCA (Pierce #23225) and analyzed by Simple Western (Protein Simple) with the following antibodies: anti-phospho-BTK (Y223) (Cell Signaling Technologies (CST) #5082), anti-BTK (CST #8547), anti-phospho-PLCγ2 (Y1217) (CST 3871), anti-PLCγ2 (CST 3872), and anti-GAPDH (GAPDH refers to glyceraldehyde 3-phosphate dehydrogenase) (Novus #MAB5718-SP). […] Results are analyzed with Compass software (Protein Simple), and IC50 values are calculated on GraphPad Prism 7.04 software.

BTK wild type = molecular target: T9, BTK wild type (Homo sapiens, UniProt Q06187); assay: Y223 autophosphorylation in HEK293 cells stably expressing BTK; type: cell-based; conditions: 2 hr treatment, signal normalized to total BTK
T9 construct: expressed in transfected cells; host or cells: HEK293
Experimental: (§2) HEK293 cell lines stably expressing BTK wild type and the mutant form C481S are generated using standard transfection methods. For assessment of cellular inhibition potency, cells are grown in DMEM +10% Fetal Bovine Serum (FBS)+1 μg/ml puromycin (complete growth media) at 37° C. in a CO2 incubator. Cells are harvested according to standard protocols using TRYPLE™ (Gibco #12604-013), counted, resuspended in complete growth media, and added to 6 well assay plates at 4×10 ^5 cell/well in 2 mL. Plates are incubated overnight at 37° C. with 5% CO2. […] All samples are tested in triplicate. Following compound incubation, the growth medium is discarded, cells are washed with DPBS (1×) (Gibco #14190-144) and lysed in 1 mL of […]™ M (Sigma #C2978) containing 1× Halt phosphatase and protease inhibitor cocktails (Pierce #78442). Plates are placed on ice for 1 hr with gentle agitation and stored at −80° C. overnight. The next day, cell lysates are placed in 1.5 mL tubes and cleared by centrifugation at 16,000×g for 10 min at 4° C. Supernatants are quantified by BCA (Pierce #23225) and stored at −80° C. Samples are analyzed by Simple Western (Protein Simple) with anti-phospho-BTK (Y223) (Cell Signaling Technologies (CST) #5082) and anti-BTK (CST #8547) (FIGS. 10A and 10B). β-actin is used as a loading control and detected by regular Western blot with an anti-3-actin antibody (CST #4970).

BTK C481S = BTK C481S (Homo sapiens, UniProt Q06187, C481S); assay: Y223 autophosphorylation in HEK293 cells stably expressing BTK C481S; type: cell-based; parameters: expressed in transfected cells; host or cells: HEK293; conditions: C481S mutant, 2 hr treatment, signal normalized to total BTK
Experimental: as §2

TMD8 cells = assay: BTK-dependent proliferation of TMD8 diffuse large B-cell lymphoma cell line; type: cell-based; conditions: Homo sapiens, from AUC of real-time confluence curves, 0.1 to 1,000 nM
Experimental: The TMD8 cells are maintained in RPMI 1640 (Gibco Catalog #31870-025) with 10% Fetal Calf Serum (FCS), 1% GLUTAMAX™, Non-Essential Amino-Acids and 1 mM sodium pyruvate. The cells are harvested by centrifugation (5 min, 1200 rpm) prior to reaching a concentration of 3×10^6 cells/mL. The medium is removed and cell pellet resuspended in fresh medium before counting with a Cellometer (Nexcelom). TMD8 cells are seeded at 5×10^4 cells/mL in 20 mL of culture medium in a T75 culture flask and held at 37° C. with 5% CO2.
The anti-proliferation activity of the compound of Formula I with TMD8 cells is accessed by the addition of increasing concentrations of inhibitor from 0.1 to 1,000 nM. A dose-dependent inhibition is observed by real-time assessment of TMD8 confluence. Individual curves for each compound of Formula I concentration are represented in the FIG. 12A.

[1] = 1.0 μM compound, ATP close to Km, read-out: Percent of Control (POC)

T1 sequence (Q02750 whole entry): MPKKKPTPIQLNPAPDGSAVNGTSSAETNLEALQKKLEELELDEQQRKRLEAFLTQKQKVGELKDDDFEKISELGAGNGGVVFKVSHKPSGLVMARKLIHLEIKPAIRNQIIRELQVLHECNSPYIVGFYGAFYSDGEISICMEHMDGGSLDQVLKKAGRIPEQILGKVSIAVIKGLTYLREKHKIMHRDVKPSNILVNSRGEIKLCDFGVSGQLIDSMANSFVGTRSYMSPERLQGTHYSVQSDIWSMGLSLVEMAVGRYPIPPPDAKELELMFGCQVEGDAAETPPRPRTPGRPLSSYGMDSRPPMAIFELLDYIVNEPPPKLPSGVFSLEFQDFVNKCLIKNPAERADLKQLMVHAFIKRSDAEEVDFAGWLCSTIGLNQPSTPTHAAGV

COc1ccc(F)cc1C(=O)NCc1ccc(-c2nn([C@@H](C)C(F)(F)F)c(N)c2C(N)=O)cc1 [compound of Formula I, (S)-5-amino-3-(4-((5-fluoro-2-methoxybenzamido)methyl)phenyl)-1-(1,1,1-trifluoropropan-2-yl)-1H-pyrazole-4-carboxamide]
remaining activity at 1 µM (MEK1; [1]): < 50% | IC50 (MEK1; ATP near Km): 147 nM | remaining activity at 1 µM (FYN; [1]): < 50% | IC50 (FYN; ATP near Km): 1710 nM | IC50 (TEC): 1230 nM | remaining activity at 1 µM (ERBB4; [1]): < 50% | IC50 (ERBB4; ATP near Km): 13.2 nM | remaining activity at 1 µM (BRK; [1]): < 50% | IC50 (BRK; ATP near Km): 54.2 nM | remaining activity at 1 µM (TXK; [1]): < 50% | IC50 (TXK; ATP near Km): 209 nM | remaining activity at 1 µM (YES1; [1]): < 50% | IC50 (YES1; ATP near Km): 157 nM | remaining activity at 1 µM (MEK2; [1]): < 50% | IC50 (MEK2; ATP near Km): 82.7 nM | IC50 (BTK): 3.2 ± 0.6 nM | IC50 (BTK wild type): 8.6 ± 0.3 nM | IC50 (BTK C481S): 8.8 ± 1.8 nM | IC50 (TMD8 cells): 2.33 nM
